Literature values, collected in patent US20230061908A1 (priority 2020, published 2023).

Conditions: wide distribution to most tissues

## CCC(CC)COC(=O)[C@H](C)N[P@](=O)(OC[C@H]1O[C@@](C#N)(c2ccc3c(N)ncnn23)[C@H](O)[C@@H]1O)Oc1ccccc1 [Remdesivir]
  crossing of the BBB (blood-brain barrier): does not cross the BBB
